This passage reports IC50 results from US8288371B2, “Ortho pyrrolidine, benzyl-substituted heterocycle CCR1 antagonists for autoimmune diseases and inflammation” (Pharmacopeia, LLC, priority 2007, dated 2012).

As a reminder, the IC50 is the concentration needed to halve the response being measured.

The target in this experiment is T1, human CCR1 (Homo sapiens, UniProt P32246).
T1 sequence (P32246 1-355): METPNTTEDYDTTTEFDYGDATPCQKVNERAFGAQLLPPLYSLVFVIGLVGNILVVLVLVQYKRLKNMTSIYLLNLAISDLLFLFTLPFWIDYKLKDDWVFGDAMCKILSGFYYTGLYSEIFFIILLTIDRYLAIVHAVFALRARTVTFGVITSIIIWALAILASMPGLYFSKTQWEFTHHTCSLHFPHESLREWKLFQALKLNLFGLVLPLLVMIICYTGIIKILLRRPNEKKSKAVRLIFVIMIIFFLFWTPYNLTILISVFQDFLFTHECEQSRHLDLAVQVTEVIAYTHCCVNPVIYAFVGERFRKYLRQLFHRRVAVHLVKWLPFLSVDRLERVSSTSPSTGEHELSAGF
The experiment is described as follows: CCR1 binding protocol (SPA, [125I]-MIP-1α displacement). Particulars: cell membrane expressing human CCR1, 0.1 nM [125I]-MIP-1α, 4 hours at ambient temperature; read-out: Relative potency (IC50). A digest of the protocol:
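Human CCR1 membranes (0.5 μg/well) on SPA beads were incubated with compound and 0.1 nM [125I]-MIP-1α (final) for 4 h at ambient temperature. Buffer was Tris pH 7.4 with NaCl, KCl, MnCl and 0.1% BSA. IC50 came from ½-log compound dilutions (10 mM top DMSO stock) by displacement of bound radioligand.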
Regarding `Cc1ncc(Cc2ccc(Cl)cc2)c([C@H]2CCCN2C(=O)Nc2c(C)noc2-c2ccccc2)n1` [Compound 21], the IC50 was in the range of 50 to 500 nM.

With `O=C(Nc1ccc(Cl)cc1F)N1CCC[C@@H]1c1nnsc1Cc1ccc(Cl)cc1` [Compound 628], the IC50 lay within 50 to 500 nM.

For `CC(=O)O[C@H]1C[C@H](c2nnc(C)n2Cc2ccc(Cl)cc2)N(C(=O)Nc2ccc(Cl)cc2F)C1` [Compound 481], the IC50 was 500 to 5000 nM.

With `Cc1nnc([C@H]2CCCN2C(=O)N[C@H]2CCOc3cc(C(F)(F)F)ccc32)n1Cc1ccc(F)cc1` [Compound 411], the IC50 is less than 50 nM.

Take `Cc1nnc([C@H]2CCCN2C(=O)Nc2c(F)cc(F)cc2F)n1Cc1ccc(Cl)cc1` [Compound 473]: the IC50 was less than 50 nM.

As for `COC(=O)c1ccc(F)c(NC(=O)N2CCC[C@@H]2c2nnc(C)n2Cc2ccc(Cl)cc2)c1` [Compound 284], the IC50 is less than 50 nM.

Regarding `Cc1nnc([C@H]2CCCN2C(=O)N[C@@H]2CC(C)(C)Oc3cc(C(F)(F)F)ccc32)n1Cc1ccc(Cl)cc1` [Compound 262], the IC50 fell in the range of 500 to 5000 nM.

On to `Cc1nnc([C@H]2CCCN2C(=O)NC2(c3ccc(F)cc3)CC2)n1Cc1ccc(Cl)cc1` [Compound 270], for which the IC50 was less than 50 nM.

Regarding `CC[C@H](NC(=O)N1CCC[C@@H]1c1nnc(C)n1Cc1ccc(Cl)cc1)c1ccc(C(F)(F)F)c(F)c1` [Compound 314], the IC50 lay within 50 to 500 nM.

Turning to `O=C(N[C@@H]1CCS(=O)(=O)c2ccc(Cl)cc21)N1CCC[C@@H]1c1nnc(CO)n1Cc1ccc(Cl)cc1` [Compound 370], the IC50 is less than 50 nM.

In the case of `CSc1nc(Cl)cc(NC(=O)N2CCC[C@@H]2c2nnc(C)n2Cc2ccc(Cl)cc2)n1` [Compound 255], the IC50 was 500 to 5000 nM.

For `Cc1noc(C)c1NC(=O)N1CCC[C@@H]1c1nnc(C)n1Cc1ccc(Cl)cc1` [Compound 200], the IC50 is less than 50 nM.

Consider `Cc1noc(-c2ccccc2)c1NC(=O)N1CCC[C@@H]1c1nnc(C(F)(F)F)n1Cc1ccc(Cl)cc1` [Compound 226], for which the IC50 lay within 50 to 500 nM.

On to `Cc1nnc([C@H]2CCCN2C(=O)Nc2ccc(Cl)cc2F)n1Cc1ccc(Cl)nc1` [Compound 364], for which the IC50 was 500 to 5000 nM.

As for `Cc1nnc([C@H]2CCCN2/C(=N/C#N)NCc2ccc(C(F)(F)F)cc2)n1Cc1ccc(Cl)cc1` [Compound 377], the IC50 was 50 to 500 nM.

As for `Cc1nc(C(F)(F)F)ccc1[C@H](C)NC(=O)N1CCC[C@@H]1c1nnc(C)n1Cc1ccc(Cl)cc1` [Compound 624], the IC50 was less than 50 nM.

In the case of `Cc1nnc(C2C3CC3CN2C(=O)NC(c2ccccc2)c2ccccc2)n1Cc1ccc(Cl)cc1` (stereo not shown) [Compound 547], the IC50 was in the range of 50 to 500 nM.

Regarding `O=C(Nc1ccc(Cl)cc1F)N1CCC[C@@H]1c1nncn1Cc1ccc(Cl)cc1` [Compound 556], the IC50 is less than 50 nM.

Consider `Cc1nnc([C@H]2CC(C)(O)CN2C(=O)N[C@H]2CCOc3cc(C(F)(F)F)ccc32)n1Cc1ccc(Cl)cc1` (stereo partly shown) [Compound 526], for which the IC50 was in the range of 50 to 500 nM.

As to `CNC(=O)c1ccc(C(F)(F)F)c(NC(=O)N2CCC[C@@H]2c2nnc(C)n2Cc2ccc(Cl)cc2)c1` [Compound 359], the IC50 was less than 50 nM.

Regarding `Cc1cccnc1NC(=O)N1CCC[C@@H]1c1nnc(C)n1Cc1ccc(Cl)cc1` [Compound 281], the IC50 was less than 50 nM.

Consider `Cc1nnc([C@H]2CCCN2C(=O)Nc2ccc(C#N)nc2)n1Cc1ccc(Cl)cc1` [Compound 396], for which the IC50 is 50 to 500 nM.

On to `Cc1noc(-c2ccccc2)c1NC(=O)N1CCC[C@@H]1c1nnc(Cl)n1Cc1ccc(Cl)cc1` [Compound 187], for which the IC50 was less than 50 nM.

As to `O=C(NCc1ccc(C(F)(F)F)cc1)N1CCC[C@@H]1c1nnc(C(F)(F)F)n1Cc1ccc(Cl)cc1` [Compound 249], the IC50 fell in the range of 500 to 5000 nM.

Take `Cc1noc(C)c1NC(=O)N1CCC[C@@H]1c1nnc(C)n1Cc1ccc(F)cc1` [Compound 385]: the IC50 was 50 to 500 nM.

On to `O=C(Nc1ccc(Cl)cc1F)N1C[C@H](O)C[C@@H]1c1nncn1Cc1ccc(Cl)cc1` [Compound 480], for which the IC50 fell in the range of 50 to 500 nM.

Take `Cc1nnc([C@H]2CCCN2C(=O)Nc2ccc(Cl)cc2F)n1Cc1ccc(Cl)cc1` [Compound 144]: the IC50 was less than 50 nM.

Regarding `Cc1nnc([C@H]2C[C@@H](O)CN2C(=O)NCc2ccc(Cl)cc2Cl)n1Cc1ccc(Cl)cc1` [Compound 442], the IC50 was less than 50 nM.

On to `CNCc1nnc([C@H]2CCCN2C(=O)N[C@H]2CCOc3cc(C(F)(F)F)ccc32)n1Cc1ccc(Cl)cc1` [Compound 413], for which the IC50 fell in the range of 50 to 500 nM.

In the case of `Cc1nnc([C@H]2C3CC3CN2C(=O)Nc2ccc(Cl)cc2F)n1Cc1ccc(Cl)cc1` (stereo partly shown) [Compound 565], the IC50 was in the range of 50 to 500 nM.

Regarding `Cc1nnc([C@H]2CCCN2C(=O)Nc2ccc(Cl)cc2Cl)n1Cc1ccc(Cl)cc1` [Compound 421], the IC50 was in the range of 50 to 500 nM.

For the compound `COC1CCC(NC(=O)N2CCC[C@@H]2c2nnc(C)n2Cc2ccc(Cl)cc2)CC1` (stereo partly shown) [Compound 292], the IC50 is 50 to 500 nM.

Consider `Cc1nnc([C@H]2CCCN2C(=O)Nc2ccc(S(N)(=O)=O)cc2)n1Cc1ccc(Cl)cc1` [Compound 355], for which the IC50 is 500 to 5000 nM.

With `CNC(=O)c1ccc(C)c(N/C(=N/C#N)N2CCC[C@@H]2c2nnc(C)n2Cc2ccc(Cl)cc2)c1` [Compound 360], the IC50 was 50 to 500 nM.

Consider `Cc1nnc([C@H]2CCCN2C(=O)Nc2ccc(Br)cc2F)n1Cc1ccc(Cl)cc1` [Compound 418], for which the concentration for half-maximal inhibition (IC50) was less than 50 nM.

For the compound `Cc1nnc([C@H]2C[C@@H](O)CN2C(=O)N[C@H]2CCOc3cc(C(F)(F)F)ccc32)n1Cc1ccc(Cl)cc1` [Compound 393], the IC50 is less than 50 nM.

For the compound `Cc1nc(C(F)(F)F)ccc1CC(=O)N1CCC[C@@H]1c1nnc(C)n1Cc1ccc(Cl)cc1` [Compound 610], the IC50 was less than 50 nM.

For `Cc1ncc(Cc2ccc(Cl)cc2)c([C@H]2CCCN2C(=O)Nc2c(C)cc(C(F)(F)F)cc2C)n1` [Compound 16], the IC50 lay within 50 to 500 nM.

As to `O=C(Nc1ccc(C(F)(F)F)cc1)N1CCC[C@@H]1c1ncnn1Cc1ccc(Cl)cc1` [Compound 64], the half-maximal inhibitory concentration (IC50) is less than 50 nM.

As to `CNC(=O)c1cccc(C)c1NC(=O)N1CCC[C@@H]1c1nnc(C)n1Cc1ccc(Cl)cc1` [Compound 212], the IC50 was less than 50 nM.

`Cc1nc(-c2ccccc2)sc1NC(=O)N1CCC[C@@H]1c1nccn1Cc1ccc(Cl)cc1` [Compound 36]: the IC50 was less than 50 nM.

`Cc1cc(C(F)(F)F)cc(C)c1NC(=O)N1CCC[C@@H]1c1nncn1Cc1ccc(Cl)cc1` [Compound 101]: the IC50 is less than 50 nM.

For `C[C@H](NC(=O)N1CCC[C@@H]1c1ncncc1Cc1ccc(Cl)cc1)c1ccc(C(F)(F)F)cc1` [Compound 20], the IC50 was in the range of 50 to 500 nM.

Consider `Cc1nnc([C@H]2CCCN2C(=O)NC2(c3ccccc3)CC2)n1Cc1ccc(Cl)c(Cl)c1` [Compound 412], for which the IC50 is less than 50 nM.

As to `Cc1cc(Cl)cc(C)c1NC(=O)N1CCC[C@@H]1c1nncn1Cc1ccc(Cl)cc1` [Compound 106], the IC50 is less than 50 nM.

On to `Cc1nnc([C@H]2CCCN2C(=O)Nc2ccc(Cl)c(C(F)(F)F)c2)n1Cc1ccc(Br)cc1` [Compound 568], for which the IC50 fell in the range of 50 to 500 nM.

On to `Cc1ccc(C(C)(C)NC(=O)N2CCC[C@@H]2c2nnc(C)n2Cc2ccc(Cl)cc2)cc1` [Compound 322], for which the IC50 is less than 50 nM.

In the case of `CC[C@H](NC(=O)N1CCC[C@@H]1c1nnc(C)n1Cc1ccc(Cl)cc1)c1c(C)cc(C(F)(F)F)cc1C` [Compound 119], the IC50 was less than 50 nM.

On to `Cc1nnc([C@H]2CCCN2C(=O)C(C)c2cccc(Cl)c2)n1Cc1ccc(Cl)cc1` (stereo partly shown) [Compound 508], for which the IC50 was in the range of 50 to 500 nM.
